Like-named read-outs stand apart in the source and are kept apart here.
Tests used:
[1] = for Percent Uptake (%) Aorta / Percent Uptake (%) Brain / Percent Uptake (%) Cardiac / Percent Uptake (%) Liver / Percent Uptake (%) Portal Vein / Percent Uptake (%) Posterior Vena Cava / Percent Uptake (%) Spleen: pre-treatment = 100.0
Text: Animals used in this study were six (6) male New Zealand white rabbits obtained from UCD. At the time of initiation, the rabbits were adult in age and weighed approximately 2.69±0.06 kg. The animals were housed separately in cages and fed a cholesterol enriched diet (CED) (TestDiet®—Richmond, Ind.) dry laboratory diet. Filtered tap water was provided ad labium. The animals were acclimated for a minimum of 7 days prior to the start of the study.
The study design comprised putting the rabbits on a CED for 5 weeks prior to the carotid overstretch procedure. At week 5, the carotid overstretch procedure was performed along with anticoagulant therapy (described below). The rabbits were then placed back on the CED with the anticoagulant therapy for an additional two (2) weeks. The rabbits were then anesthetized and Computer Tomography (CT) studies were performed. An iodinated nanoparticle, PH-50, having a mean diameter of 282 nm and a concentration of 15% (w/v) was evaluated in intact male rabbits with an average weight of 2.69±0.06 kg. Six (6) mL/kg of PH-50 was infused over ninety (90) minutes intravenously (IV) via an ear vein. The rabbits were then euthanized and necropsied after the 8 hour CT study.
The CED diet consisted of Purina® 5321 (a standard high-quality rabbit chow that is widely available) supplemented with 2% cholesterol, 5% coconut oil and 0.5% sodium cholate. The CED was formulated by and purchased from TestDiet® (Richmond, Ind.).
The carotid overstretch procedure was performed as follows: Rabbits were pretreated with an appropriate anticoagulant (heparin) prior to the procedure, and maintained on aspirin (20 mg/kg) for 14 days after the procedure. On the day of the procedure, the rabbits were boxed down and ventilated appropriately. The left carotid artery was exposed using standard techniques known in the art. A small puncture was made distal to the site to be overstretched, and a balloon catheter was placed in the artery. The vessel diameter was estimated from direct visualization. The balloon overstretch injury was performed using balloon diameters 30% greater than the baseline arterial diameter at the target areas three inflations of the balloon at approximately 6 atmospheric pressure for 30 seconds each, with a one-minute interval between inflations. Afterwards, the catheter was withdrawn and the rabbits allowed to recover for 14 days prior to the administration of PH-50. The animals were maintained on the CED and aspirin therapy during the 14-day recovery period. Fourteen (14) days following the overstretch procedure, the rabbits were anesthetized and maintained under anesthesia during PH-50 infusion and the CT scan procedures. […] In addition, whole body CT scans were made at contiguous 5 mm slices (at pretreatment, 4 hours and 8 hour studies).
The computer tomography (CT) imaging was performed with a GE® Hi-Speed Computed Tomography Scanner (Milwaukee, Wis.). The CT images were stored as DICOM3 images in GE® optical disks, CD-Rom. The parameter for CT imaging were 1 mm contiguous slices at 120 kvp, 1.5 seconds at 150 mA. CT scans of the entire rabbit were performed (from rostral nasal area to pelvis at specified times).

[2] = tested on: atherosclerotic plaques; test: Correlation of CT/Faxitron images with histopathology (Histopathology Correlation Scale); type: in vivo, New Zealand white rabbits; parameters: key to HCS score, renal images: 0=no correlation; 5=direct correlation
Text: The primary focus of this study was to study the potential uptake by atherosclerotic plaques of the compound PH-50. The spatial resolution of the CT scanner used in these experiments was approximately 0.15 mm and determination of plaque formation and PH-50 uptake were correlated with histopathology. The timetable for the schedule of CT studies for rabbit numbers 3081 and 3086 are outlined in Table 8.
All sets of data were carefully harvested, analyzed and then correlated with histopathology. Images were collected, labeled as either “carotid”, “Lung”, “Spleen”, “Liver”, “Cardiac”, “Renal” or “Faxitron images of the carotids,” and then graded according to a Histopathology Correlation Scale (HCS), where 0=no correlation and 5=direct correlation.

[3] = Particle size of the nanoparticle; type: physicochemical; conditions: iodinated nanoparticle, 15% (w/v)
[4] = Rabbit No. 3081, 18 mL/90 min IV infusion (900 mg/kg), 255 min
[5] = Rabbit No. 3081, 18 mL/90 min IV infusion (900 mg/kg), 495 min
[6] = Rabbit No. 3086, 18 mL/90 min IV infusion (900 mg/kg), 250 min
[7] = Rabbit No. 3086, 18 mL/90 min IV infusion (900 mg/kg), 480 min

SMILES: CCOC(=O)CCCCCOC(=O)c1c(I)c(NC(C)=O)c(I)c(NC(C)=O)c1I [PH-50, 6-ethoxy-6-oxohexy-3,5-bis(acetylamino)-2,4,6-triiodobenzoate]
- Hounsfield Units (HU) Aorta [1, 4]: 56.5 HU
- Hounsfield Units (HU) Brain [1, 4]: 49.1 HU
- Hounsfield Units (HU) Cardiac [1, 4]: 136.2 HU
- Hounsfield Units (HU) Liver [1, 4]: 169.3 HU
- Hounsfield Units (HU) Portal Vein [1, 4]: 56.4 HU
- Hounsfield Units (HU) Posterior Vena Cava [1, 4]: 95.3 HU
- Hounsfield Units (HU) Spleen [1, 4]: 449.8 HU
- Hounsfield Units (HU) Aorta [1, 5]: 89.3 HU
- Hounsfield Units (HU) Brain [1, 5]: 36.8 HU
- Hounsfield Units (HU) Cardiac [1, 5]: 138.8 HU
- Hounsfield Units (HU) Liver [1, 5]: 110.6 HU
- Hounsfield Units (HU) Portal Vein [1, 5]: 55.4 HU
- Hounsfield Units (HU) Posterior Vena Cava [1, 5]: 87.8 HU
- Hounsfield Units (HU) Spleen [1, 5]: 351.2 HU
- Percent Uptake (%) Aorta ([1]; Rabbit No. 3081, 255 min): 84.0%
- Percent Uptake (%) Brain ([1]; Rabbit No. 3081, 255 min): 164.2%
- Percent Uptake (%) Cardiac ([1]; Rabbit No. 3081, 255 min): 383.3%
- Percent Uptake (%) Liver ([1]; Rabbit No. 3081, 255 min): 383.9%
- Percent Uptake (%) Portal Vein ([1]; Rabbit No. 3081, 255 min): 128.5%
- Percent Uptake (%) Posterior Vena Cava ([1]; Rabbit No. 3081, 255 min): 141.0%
- Percent Uptake (%) Spleen ([1]; Rabbit No. 3081, 255 min): 510.6%
- Percent Uptake (%) Aorta ([1]; Rabbit No. 3081, 495 min): 132.7%
- Percent Uptake (%) Brain ([1]; Rabbit No. 3081, 495 min): 123.1%
- Percent Uptake (%) Cardiac ([1]; Rabbit No. 3081, 495 min): 250.8%
- Percent Uptake (%) Liver ([1]; Rabbit No. 3081, 495 min): 250.8%
- Percent Uptake (%) Portal Vein ([1]; Rabbit No. 3081, 495 min): 126.2%
- Percent Uptake (%) Posterior Vena Cava ([1]; Rabbit No. 3081, 495 min): 129.9%
- Percent Uptake (%) Spleen ([1]; Rabbit No. 3081, 495 min): 398.6%
- Hounsfield Units (HU) Aorta [1, 6]: 64.0 HU
- Hounsfield Units (HU) Brain [1, 6]: 31.3 HU
- Hounsfield Units (HU) Cardiac [1, 6]: 220.2 HU
- Hounsfield Units (HU) Liver [1, 6]: 189.4 HU
- Hounsfield Units (HU) Portal Vein [1, 6]: 54.5 HU
- Hounsfield Units (HU) Posterior Vena Cava [1, 6]: 96.5 HU
- Hounsfield Units (HU) Spleen [1, 6]: 786.6 HU
- Hounsfield Units (HU) Aorta [1, 7]: 24.1 HU
- Hounsfield Units (HU) Brain [1, 7]: 34.7 HU
- Hounsfield Units (HU) Cardiac [1, 7]: 200.3 HU
- Hounsfield Units (HU) Liver [1, 7]: 98.2 HU
- Hounsfield Units (HU) Portal Vein [1, 7]: 28.1 HU
- Hounsfield Units (HU) Posterior Vena Cava [1, 7]: 58.6 HU
- Hounsfield Units (HU) Spleen [1, 7]: 228.5 HU
- Percent Uptake (%) Aorta ([1]; Rabbit No. 3086, 250 min): 186.6%
- Percent Uptake (%) Brain ([1]; Rabbit No. 3086, 250 min): 81.3%
- Percent Uptake (%) Cardiac ([1]; Rabbit No. 3086, 250 min): 320.1%
- Percent Uptake (%) Liver ([1]; Rabbit No. 3086, 250 min): 384.2%
- Percent Uptake (%) Portal Vein ([1]; Rabbit No. 3086, 250 min): 122.7%
- Percent Uptake (%) Posterior Vena Cava ([1]; Rabbit No. 3086, 250 min): 204.9%
- Percent Uptake (%) Spleen ([1]; Rabbit No. 3086, 250 min): 792.9%
- Percent Uptake (%) Aorta ([1]; Rabbit No. 3086, 480 min): 70.3%
- Percent Uptake (%) Brain ([1]; Rabbit No. 3086, 480 min): 90.1%
- Percent Uptake (%) Cardiac ([1]; Rabbit No. 3086, 480 min): 291.1%
- Percent Uptake (%) Liver ([1]; Rabbit No. 3086, 480 min): 199.2%
- Percent Uptake (%) Portal Vein ([1]; Rabbit No. 3086, 480 min): 63.3%
- Percent Uptake (%) Posterior Vena Cava ([1]; Rabbit No. 3086, 480 min): 124.4%
- Percent Uptake (%) Spleen ([1]; Rabbit No. 3086, 480 min): 230.3%
- adverse reactions during the infusion ([1]; anesthetized rabbits, 6 mL/kg IV over 90 min): No adverse reactions
- blood pressure or heart rate ([1]; anesthetized rabbits, during infusion of 6 mL/kg IV over 90 min): no increase
- uptake by atherosclerotic plaques ([2]; CT with histopathology, cholesterol-fed rabbits): taken up by atherosclerotic plaques in the heart and lung
- HCS score, carotid images ([2]; left carotid of rabbit no. 3086): 2
- HCS score, Faxitron images ([2]; mid region of the left carotid artery of rabbit no. 3086): 3
- HCS score, cardiac images ([2]; plaques in the coronary arteries and myocardium of rabbit no. 3086, 4 and 8 hours post-injection): 4
- HCS score, renal images ([2]; renal artery of rabbit no. 3086, area not submitted for histopathology): 0
- HCS score, liver images ([2]; small arterioles of the liver of rabbit no. 3086, 4 hours post-injection): 3
- HCS score, lung images ([2]; small arterioles of the lung, 4 hours post-injection): 4
- HCS score, spleen images ([2]; small arterioles of the spleen of rabbit no. 3086, 4 hours post-injection): 4
- mean diameter [3]: 282 nm
